Values after ≈ are worked out from the molar mass of the structure shown.
Experiments:
[1] = system: Staphylococcus aureus; test: Antibacterial activity against methicillin-resistant Staphylococcus aureus N315 after 24 hrs by micro broth dilution assay; format: functional; conditions: N315, 24 h
[2] = system: Cyberlindnera jadinii; test: Antifungal against Candida utilis after 24 hrs by two fold serial dilution method; format: functional; conditions: Williopsis jadinii
[3] = system: Micrococcus luteus; test: Antibacterial activity against Micrococcus luteus ATCC4698 after 24 hrs by micro broth dilution assay; format: functional; conditions: ATCC4698, 24 h
[4] = system: Pseudomonas aeruginosa; test: Antibacterial activity against Pseudomonas aeruginosa after 24 hrs by micro broth dilution assay; format: functional
[5] = system: Candida albicans; test: Antifungal against Candida albicans ATCC 76615 after 24 hrs by two fold serial dilution method; format: functional; conditions: ATCC 76615, 24 h
[6] = system: Escherichia coli; test: Antibacterial activity against Escherichia coli DH52 after 24 hrs by micro broth dilution assay; format: functional; conditions: DH52, 24 h
[7] = system: Pichia norvegensis; test: Antifungal against Candida mycoderma after 24 hrs by two fold serial dilution method; format: functional
[8] = system: Salmonella typhi; test: Antibacterial activity against Bacillus typhi after 24 hrs by micro broth dilution assay; format: functional, Salmonella enterica subsp. enterica serovar Typhi; conditions: Salmonella enterica
[9] = system: Bacillus; test: Antibacterial activity against Bacillus proteus ATCC 13315 after 24 hrs by micro broth dilution assay; format: functional; conditions: ATCC 13315, 24 h
[10] = system: Escherichia coli; test: Antibacterial activity against Escherichia coli JM109 after 24 hrs by micro broth dilution assay; format: functional; conditions: JM109, 24 h
[11] = system: Saccharomyces cerevisiae; test: Antifungal against Saccharomyces cerevisiae after 24 hrs by two fold serial dilution method; format: functional
[12] = system: Staphylococcus aureus; test: Antibacterial activity against Staphylococcus aureus ATCC 25923 after 24 hrs by micro broth dilution assay; format: functional; conditions: ATCC 25923, 24 h
[13] = system: Bacillus subtilis; test: Antibacterial activity against Bacillus subtilis after 24 hrs by micro broth dilution assay; format: functional
[14] = system: Aspergillus flavus; test: Antifungal against Aspergillus flavus after 24 hrs by two fold serial dilution method; format: functional
[15] = system: Shigella dysenteriae; test: Antibacterial activity against Shigella dysenteriae after 24 hrs by micro broth dilution assay; format: functional
[16] = system: Staphylococcus aureus; test: Ratio of MBC for methicillin-resistant Staphylococcus aureus N315 to MIC for methicillin-resistant Staphylococcus aureus N315; format: functional
[17] = system: Staphylococcus aureus; test: Antibacterial activity against methicillin-resistant Staphylococcus aureus N315 incubated for 24 hrs followed by plating onto tryptic soy agar medium and measured after 24 hrs; format: functional; conditions: N315, 24 h
[18] = system: Staphylococcus aureus; test: Ratio of MBC for Staphylococcus aureus ATCC 25923 to MIC for Staphylococcus aureus ATCC 25923; format: functional
[19] = system: Pseudomonas aeruginosa; test: Antibacterial activity against Pseudomonas aeruginosa incubated for 24 hrs followed by plating onto tryptic soy agar medium and measured after 24 hrs; format: functional
[20] = system: Staphylococcus aureus; test: Antibacterial activity against Staphylococcus aureus ATCC 25923 incubated for 24 hrs followed by plating onto tryptic soy agar medium and measured after 24 hrs; format: functional; conditions: ATCC 25923, 24 h

Structure (SMILES)	MIC [1]	MIC [2]	MIC [3]	MIC [4]	MIC [5]	MIC [6]	MIC [7]	MIC [8]	MIC [9]	MIC [10]	MIC [11]	MIC [12]	MIC [13]	MIC [14]	MIC [15]	Ratio [16]	MBC [17]	Ratio [18]	MBC [19]	MBC [20]
O=C(/C=C/c1ccc(Cl)cc1)c1nc2ccccc2[nH]1	512 µg/mL (≈ 1810 µM)	512 µg/mL (≈ 1810 µM)	64 µg/mL (≈ 226 µM)	512 µg/mL (≈ 1810 µM)	512 µg/mL (≈ 1810 µM)	8 µg/mL (≈ 28.3 µM)	512 µg/mL (≈ 1810 µM)	512 µg/mL (≈ 1810 µM)	512 µg/mL (≈ 1810 µM)	256 µg/mL (≈ 905 µM)	128 µg/mL (≈ 453 µM)	128 µg/mL (≈ 453 µM)	512 µg/mL (≈ 1810 µM)	32 µg/mL (≈ 113 µM)	512 µg/mL (≈ 1810 µM)	–	–	–	–	–
CCCCCCCCn1c(C(=O)/C=C/c2ccc(Cl)cc2Cl)nc2ccccc21	64 µg/mL (≈ 149 µM)	512 µg/mL (≈ 1190 µM)	512 µg/mL (≈ 1190 µM)	512 µg/mL (≈ 1190 µM)	512 µg/mL (≈ 1190 µM)	512 µg/mL (≈ 1190 µM)	512 µg/mL (≈ 1190 µM)	512 µg/mL (≈ 1190 µM)	512 µg/mL (≈ 1190 µM)	256 µg/mL (≈ 596 µM)	512 µg/mL (≈ 1190 µM)	512 µg/mL (≈ 1190 µM)	512 µg/mL (≈ 1190 µM)	512 µg/mL (≈ 1190 µM)	512 µg/mL (≈ 1190 µM)	–	–	–	–	–
CCCCn1c(-c2cc(-c3ccc(C)cc3)nc(N)n2)nc2ccccc21	16 µg/mL (≈ 44.8 µM)	4 µg/mL (≈ 11.2 µM)	16 µg/mL (≈ 44.8 µM)	8 µg/mL (≈ 22.4 µM)	128 µg/mL (≈ 358 µM)	32 µg/mL (≈ 89.5 µM)	8 µg/mL (≈ 22.4 µM)	32 µg/mL (≈ 89.5 µM)	16 µg/mL (≈ 44.8 µM)	16 µg/mL (≈ 44.8 µM)	32 µg/mL (≈ 89.5 µM)	8 µg/mL (≈ 22.4 µM)	16 µg/mL (≈ 44.8 µM)	64 µg/mL (≈ 179 µM)	16 µg/mL (≈ 44.8 µM)	1	16 µg/mL (≈ 44.8 µM)	4	16 µg/mL (≈ 44.8 µM)	32 µg/mL (≈ 89.5 µM)
CCCCCCn1c(-c2cc(-c3ccc(C)cc3)nc(N)n2)nc2ccccc21	16 µg/mL (≈ 41.5 µM)	8 µg/mL (≈ 20.8 µM)	16 µg/mL (≈ 41.5 µM)	64 µg/mL (≈ 166 µM)	32 µg/mL (≈ 83 µM)	32 µg/mL (≈ 83 µM)	8 µg/mL (≈ 20.8 µM)	16 µg/mL (≈ 41.5 µM)	16 µg/mL (≈ 41.5 µM)	16 µg/mL (≈ 41.5 µM)	16 µg/mL (≈ 41.5 µM)	128 µg/mL (≈ 332 µM)	128 µg/mL (≈ 332 µM)	512 µg/mL (≈ 1330 µM)	256 µg/mL (≈ 664 µM)	–	–	–	–	–
CCCCCCCn1c(C(=O)/C=C/c2ccc(Cl)cc2)nc2ccccc21	512 µg/mL (≈ 1340 µM)	512 µg/mL (≈ 1340 µM)	8 µg/mL (≈ 21 µM)	512 µg/mL (≈ 1340 µM)	512 µg/mL (≈ 1340 µM)	32 µg/mL (≈ 84 µM)	512 µg/mL (≈ 1340 µM)	512 µg/mL (≈ 1340 µM)	512 µg/mL (≈ 1340 µM)	512 µg/mL (≈ 1340 µM)	512 µg/mL (≈ 1340 µM)	256 µg/mL (≈ 672 µM)	256 µg/mL (≈ 672 µM)	64 µg/mL (≈ 168 µM)	512 µg/mL (≈ 1340 µM)	–	–	–	–	–
CCCCCCn1c(-c2cc(-c3ccc(Cl)cc3Cl)nc(N)n2)nc2ccccc21	512 µg/mL (≈ 1160 µM)	512 µg/mL (≈ 1160 µM)	512 µg/mL (≈ 1160 µM)	512 µg/mL (≈ 1160 µM)	256 µg/mL (≈ 581 µM)	64 µg/mL (≈ 145 µM)	512 µg/mL (≈ 1160 µM)	512 µg/mL (≈ 1160 µM)	512 µg/mL (≈ 1160 µM)	512 µg/mL (≈ 1160 µM)	512 µg/mL (≈ 1160 µM)	512 µg/mL (≈ 1160 µM)	512 µg/mL (≈ 1160 µM)	512 µg/mL (≈ 1160 µM)	512 µg/mL (≈ 1160 µM)	–	–	–	–	–
CCCCCCCCn1c(C(=O)/C=C/c2ccc(Cl)cc2)nc2ccccc21	512 µg/mL (≈ 1300 µM)	512 µg/mL (≈ 1300 µM)	512 µg/mL (≈ 1300 µM)	512 µg/mL (≈ 1300 µM)	4 µg/mL (≈ 10.1 µM)	8 µg/mL (≈ 20.3 µM)	512 µg/mL (≈ 1300 µM)	128 µg/mL (≈ 324 µM)	512 µg/mL (≈ 1300 µM)	512 µg/mL (≈ 1300 µM)	4 µg/mL (≈ 10.1 µM)	512 µg/mL (≈ 1300 µM)	512 µg/mL (≈ 1300 µM)	32 µg/mL (≈ 81 µM)	512 µg/mL (≈ 1300 µM)	–	–	–	–	–
CCCCCCn1c(C(=O)/C=C/c2ccc(C)cc2)nc2ccccc21	16 µg/mL (≈ 46.2 µM)	512 µg/mL (≈ 1480 µM)	512 µg/mL (≈ 1480 µM)	512 µg/mL (≈ 1480 µM)	512 µg/mL (≈ 1480 µM)	512 µg/mL (≈ 1480 µM)	512 µg/mL (≈ 1480 µM)	512 µg/mL (≈ 1480 µM)	512 µg/mL (≈ 1480 µM)	512 µg/mL (≈ 1480 µM)	512 µg/mL (≈ 1480 µM)	512 µg/mL (≈ 1480 µM)	512 µg/mL (≈ 1480 µM)	512 µg/mL (≈ 1480 µM)	512 µg/mL (≈ 1480 µM)	–	–	–	–	–
CCCCCCCn1c(-c2cc(-c3ccc(F)cc3)nc(N)n2)nc2ccccc21	256 µg/mL (≈ 634 µM)	8 µg/mL (≈ 19.8 µM)	16 µg/mL (≈ 39.7 µM)	512 µg/mL (≈ 1270 µM)	16 µg/mL (≈ 39.7 µM)	16 µg/mL (≈ 39.7 µM)	512 µg/mL (≈ 1270 µM)	16 µg/mL (≈ 39.7 µM)	128 µg/mL (≈ 317 µM)	256 µg/mL (≈ 634 µM)	16 µg/mL (≈ 39.7 µM)	512 µg/mL (≈ 1270 µM)	2 µg/mL (≈ 4.96 µM)	16 µg/mL (≈ 39.7 µM)	512 µg/mL (≈ 1270 µM)	–	–	–	–	–
